Laboratory results as given in US6589973B1, “Preparation of selective cyclooxygenase II inhibitors” (THEMIS Medicare Ltd., priority 2002, dated 2003).

Columns and labels:
[1] = background statement; cited from earlier work
[2] = tested on: Hot Plate Analgesometer in rats; test: Central analgesic activity, hot plate (55° C) in rats; parameters: species or system Albino rats; settings: rat, in vivo

Molecule	solubility in water (in words) [1]	other results
Cc1ccc(-c2cc(C(F)(F)F)nn2-c2ccc(S(N)(=O)=O)cc2)cc1 [Celecoxib]	poorly soluble in water	–
COc1ccc(-c2cc(C(F)F)nn2-c2ccc(S(N)(=O)=O)cc2)cc1F [Deracoxib]	poorly soluble in water	–
CC(C)=CCN1CCC2(C)c3cc(O)ccc3CC1C2C (centres unmarked) [Pentazocin]	–	% Increase in Reaction Time (IRT) [2]: 92.85%; Basal Reaction Time (BRT) [2]: 6.33 ± 0.41 s; Latent Reaction Time (LRT) [2]: 11.66 ± 1.60 s
CS(=O)(=O)c1ccc(C2=C(c3ccccc3)C(=O)OC2)cc1 [Rofecoxib]	poorly soluble in water	–
Cc1onc(-c2ccccc2)c1-c1ccc(S(N)(=O)=O)cc1 [Valdecoxib]	poorly soluble in water	–
Itacoxib	poorly soluble in water	–
